Measurements reported in the OligoGym collection.
Several values for one entry are separate records, joined by “and”; a condition that tells them apart may be missing. Equal entries are not always repeated. After the bases stand the sugars from the 5' end (letter, count) and the backbone: PS all phosphorothioate, else s phosphorothioate and o phosphodiester by linkage. Methylation of C is not given here. e = 2'-O-(2-methoxyethyl) (MOE); l = locked nucleic acid (LNA); k = constrained ethyl (cEt); d = 2'-deoxy (DNA)

How the values were obtained:
SNHG14 = details: ASO
SOD1 = details: ASO
[1] = Mouse Primary Neuronal Cell, 0.005 µM

| Sequence | target mRNA inhibition (SNHG14; Human Neuronal Cell, 7.5 µM) [%] | also measured |
| --- | --- | --- |
| AAAATCTCAACTACCATTT (sugars l6 d7 l2 d2 l2, PS) | 41 | – |
| AAAATCTCAACTACCATTT (sugars ldldllddddddddlllll, PS) | 31 | – |
| AAAATCTCAACTACCATTT (sugars lldldlddddddddlllll, PS) | 41 | – |
| AAAATCTCAACTACCATTTT (sugars ldlddlddddddddldllll, PS) | 28 | – |
| AAAATCTCAACTACCATTTT (sugars ldlllldddddddddlddll, PS) | 50 | – |
| AAAATTATTTATACACCATC (sugars lldddldddddddldlllll, PS) | 55 | – |
| AAAATTATTTATACACCATC (sugars llldldldddddddllldll, PS) | 56 | – |
| AAAGATCATTCTCAACAA (sugars ldddllddddddlldlll, PS) | 33 | – |
| AAAGATCATTCTCAACAA (sugars lddlldddddddldllll, PS) | 66 | – |
| AAAGATCATTCTCAACAA (sugars ldllldddddddlldlll, PS) | 65 | – |
| AAATCTCAACTACCATTTTT (sugars ldddlddddddddldlllll, PS) | 46 | – |
| AAATTATTTATACACCATCA (sugars l1 d12 l3 d1 l3, PS) | 40 | – |
| AAATTATTTATACACCATCA (sugars ldlddldddddddldlldll, PS) | 60 | – |
| AACAACTCATGCCACA (sugars l2 d10 l4, PS) | – | target mRNA inhibition (SNHG14; Human Neuronal Cell, 0.2 µM): 53%; target mRNA inhibition (SNHG14; Human Neuronal Cell, 1 µM): 59% |
| AACCCATTTCTAACAT (sugars l4 d10 l2, PS) | – | target mRNA inhibition (SNHG14; Human Neuronal Cell, 0.2 µM): 35%; target mRNA inhibition (SNHG14; Human Neuronal Cell, 1 µM): 56% |
| AAGATCATTCTCAACAAT (sugars l2 d1 l3 d8 l4, PS) | 44 | – |
| AAGATCATTCTCAACAAT (sugars l4 d9 l5, PS) | 52 | – |
| AATCTCAACTACCATT (sugars l4 d10 l2, PS) | – | target mRNA inhibition (SNHG14; Human Neuronal Cell, 0.2 µM): 60%; target mRNA inhibition (SNHG14; Human Neuronal Cell, 1 µM): 66% |
| AATTATTTATACACCATCAT (sugars ldddldlddddddldddlll, PS) | 67 | – |
| AATTATTTATACACCATCAT (sugars lddllldddddddldlddll, PS) | 71 | – |
| AATTATTTATACACCATCAT (sugars ldlldddddddddddldlll, PS) | 62 | – |
| AATTTTTTTCTTACTATCTT (sugars lddddldddddddldldlll, PS) | 50 | – |
| AATTTTTTTCTTACTATCTT (sugars ldddldlddddddlldddll, PS) | 34 | – |

| Sequence | target mRNA inhibition (SNHG14; Human Neuronal Cell, 7.5 µM) [%] | also measured |
| --- | --- | --- |
| AATTTTTTTCTTACTATCTT (sugars llllddldddddddldddll, PS) | 49 | – |
| ACAACTATTATCTTCT (sugars l3 d10 l3, PS) | – | target mRNA inhibition (SNHG14; Human Neuronal Cell, 0.2 µM): 40%; target mRNA inhibition (SNHG14; Human Neuronal Cell, 1 µM): 57% |
| ACATCTCATACTTGCT (sugars l2 d11 l3, PS) | – | target mRNA inhibition (SNHG14; [1]): 96.3% |
| ACATCTCATACTTGCTT (sugars l2 d12 l3, PS) | – | target mRNA inhibition (SNHG14; [1]): 96.9% |
| ACATTATTATTTAACCT (sugars l3 d11 l3, PS) | – | target mRNA inhibition (SNHG14; Human Neuronal Cell, 0.2 µM): 6%; target mRNA inhibition (SNHG14; Human Neuronal Cell, 1 µM): 17% |
| ACCACCTAAGACCTCAA (sugars l2 d11 l4, PS) | – | target mRNA inhibition (SNHG14; Human Neuronal Cell, 0.2 µM): 38%; target mRNA inhibition (SNHG14; Human Neuronal Cell, 1 µM): 60% |
| ACCAGCTACAGGAACCTC (sugars l3 d12 l3, PS) | – | target mRNA inhibition (SNHG14; Human Neuronal Cell, 0.2 µM): -35%; target mRNA inhibition (SNHG14; Human Neuronal Cell, 1 µM): -33%; target mRNA inhibition (SNHG14; Human Neuronal Cell, 5 µM): -60% |
| ACCTTAAGTAACATTT (sugars l4 d10 l2, PS) | – | target mRNA inhibition (SNHG14; Human Neuronal Cell, 0.2 µM): 36%; target mRNA inhibition (SNHG14; Human Neuronal Cell, 1 µM): 44% |
| ACTAATGCAATAACCC (sugars l3 d10 l3, PS) | – | target mRNA inhibition (SNHG14; Human Neuronal Cell, 0.2 µM): 45%; target mRNA inhibition (SNHG14; Human Neuronal Cell, 1 µM): 28% |
| ACTCTCACTGTAACTTT (sugars l4 d11 l2, PS) | – | target mRNA inhibition (SNHG14; Human Neuronal Cell, 0.2 µM): 21%; target mRNA inhibition (SNHG14; Human Neuronal Cell, 1 µM): 35% |
| ACTCTGCAATACACCAA (sugars llddlddddddldldll, PS) | 33 | – |
| ACTGTTTATACCCTTTC (sugars l4 d11 l2, PS) | – | target mRNA inhibition (SNHG14; Human Neuronal Cell, 0.2 µM): 43%; target mRNA inhibition (SNHG14; Human Neuronal Cell, 1 µM): 51% |
| ACTGTTTATACCCTTTCC (sugars l1 d15 l2, PS) | 40 | – |
| AGATCATTCTCAACAATT (sugars l1 d3 l2 d6 l6, PS) | 54 | – |
| AGATCATTCTCAACAATT (sugars l2 d1 l3 d10 l2, PS) | 46 | – |
| AGATCATTCTCAACAATT (sugars ldllllddddddldddll, PS) | 48 | – |
| AGATCATTCTCAACAATTA (sugars ldddllddddddldlddll, PS) | 62 | – |
| AGCAACATTATTAACCAC (sugars l2 d10 l2 d1 l3, PS) | 44 | – |
| AGCAACATTATTAACCAC (sugars ldllldddddddllldll, PS) | 35 | – |
| AGCAACATTATTAACCACC (sugars lddldlddddddldddlll, PS) | 52 | – |
| AGCAACATTATTAACCACC (sugars ldldlddddddddlddlll, PS) | 53 | – |
| AGCTTTTAACCAGAGTGG (sugars l1 d14 l3, PS) | 66 | – |
| AGTTCTACTATACTTTC (sugars l1 d2 l2 d8 l4, PS) | 57 | – |

| Sequence | target mRNA inhibition (SNHG14; Human Neuronal Cell, 7.5 µM) [%] | also measured |
| --- | --- | --- |
| AGTTCTACTATACTTTC (sugars l2 d1 l2 d10 l2, PS) | 58 | – |
| AGTTCTACTATACTTTC (sugars llddlddddddldllll, PS) | 18 | – |
| AGTTCTACTATACTTTCC (sugars ldlddddddddddlddll, PS) | 61 | – |
| ATAACATTACTCTTAACA (sugars l3 d12 l3, PS) | – | target mRNA inhibition (SNHG14; Human Neuronal Cell, 0.2 µM): 22%; target mRNA inhibition (SNHG14; Human Neuronal Cell, 1 µM): 40% |
| ATACCTTTCTTTAACCC (sugars l4 d11 l2, PS) | – | target mRNA inhibition (SNHG14; Human Neuronal Cell, 0.2 µM): 60%; target mRNA inhibition (SNHG14; Human Neuronal Cell, 1 µM): 67% |
| ATATCCCTTGATTATCC (sugars l3 d11 l3, PS) | – | target mRNA inhibition (SNHG14; Human Neuronal Cell, 0.2 µM): 16%; target mRNA inhibition (SNHG14; Human Neuronal Cell, 1 µM): 18% |
| ATATTGATTCAATTCCC (sugars l1 d1 l2 d8 l5, PS) | 64 | – |
| ATATTGATTCAATTCCC (sugars l4 d7 l1 d3 l2, PS) | 67 | – |
| ATATTGATTCAATTCCC (sugars llldldddddddlddll, PS) | 52 | – |
| ATCATTCTCAACAATTAA (sugars l1 d1 l4 d6 l6, PS) | 4 | – |
| ATCATTCTCAACAATTAA (sugars l4 d8 l1 d1 l4, PS) | 53 | – |
| ATCATTCTCAACAATTAA (sugars l5 d8 l1 d1 l3, PS) | 59 | – |
| ATCATTCTCAACAATTAAA (sugars l5 d8 l2 d2 l2, PS) | 57 | – |
| ATCCAAAGTTTCTTTC (sugars l4 d10 l2, PS) | – | target mRNA inhibition (SNHG14; Human Neuronal Cell, 0.2 µM): 43%; target mRNA inhibition (SNHG14; Human Neuronal Cell, 1 µM): 34% |
| ATCCTATGTTAATACT (sugars l4 d10 l2, PS) | – | target mRNA inhibition (SNHG14; Human Neuronal Cell, 0.2 µM): 14%; target mRNA inhibition (SNHG14; Human Neuronal Cell, 1 µM): 33% |
| ATCCTGATAATTAACT (sugars l4 d10 l2, PS) | – | target mRNA inhibition (SNHG14; Human Neuronal Cell, 0.2 µM): -8%; target mRNA inhibition (SNHG14; Human Neuronal Cell, 1 µM): 5% |
| ATCTCATGACCACCTAA (sugars l3 d10 l1 d1 l2, PS) | 60 | – |
| ATCTCATGACCACCTAA (sugars ldldddddddddldlll, PS) | 61 | – |
| ATCTCATGACCACCTAA (sugars ldlddddddddlddlll, PS) | 52 | – |
| ATCTGATCTCACACAT (sugars l3 d10 l3, PS) | – | target mRNA inhibition (SNHG14; Human Neuronal Cell, 0.2 µM): 22%; target mRNA inhibition (SNHG14; Human Neuronal Cell, 1 µM): 40% |
| ATCTTTCCATTTATTTCCA (sugars lddlddddddddddlddll, PS) | 44 | – |
| ATCTTTCCATTTATTTCCAT (sugars l1 d16 l3, PS) | 15 | – |
| ATGCTCACACTAATTA (sugars l4 d10 l2, PS) | – | target mRNA inhibition (SNHG14; Human Neuronal Cell, 0.2 µM): 35%; target mRNA inhibition (SNHG14; Human Neuronal Cell, 1 µM): 48% |

| Sequence | target mRNA inhibition (SNHG14; Human Neuronal Cell, 7.5 µM) [%] | also measured |
| --- | --- | --- |
| ATTGATTCAATTCCCTT (sugars ldldldddddddlldll, PS) | 65 | – |
| ATTGATTCAATTCCCTT (sugars llddlddddddddldll, PS) | 64 | – |
| ATTGATTCAATTCCCTT (sugars llddldddddddldlll, PS) | 50 | – |
| ATTTACACTTAATTATACTT (sugars ldllddlddddddlllldll, PS) | 12 | – |
| ATTTACACTTAATTATACTT (sugars lldlddlddddddllldlll, PS) | 10 | – |
| ATTTATTTCCATTTATTTTC (sugars lldldlddddddddldldll, PS) | 55 | – |
| ATTTCATTAAGTCACCC (sugars l3 d11 l3, PS) | – | target mRNA inhibition (SNHG14; Human Neuronal Cell, 0.2 µM): 51%; target mRNA inhibition (SNHG14; Human Neuronal Cell, 1 µM): 53% |
| ATTTCTCTATGTCACAT (sugars l3 d11 l3, PS) | – | target mRNA inhibition (SNHG14; Human Neuronal Cell, 0.2 µM): 31%; target mRNA inhibition (SNHG14; Human Neuronal Cell, 1 µM): 35% |
| ATTTTTTTCTTACTATCTTC (sugars ldddddlddddddldddlll, PS) | 43 | – |
| ATTTTTTTCTTACTATCTTC (sugars lddddlddddddddldldll, PS) | 63 | – |
| ATTTTTTTCTTACTATCTTC (sugars ldlddldddddddddddlll, PS) | 56 | – |
| ATTTTTTTCTTACTATCTTC (sugars llddldldddddddldddll, PS) | 49 | – |
| TTTCTACAGCTAGCAGG (sugars e2 k2 d8 k2 e3, PS) | – | target mRNA inhibition (SOD1; HepG2, 0.1875 µM): 16%; target mRNA inhibition (SOD1; HepG2, 0.75 µM): 58%; target mRNA inhibition (SOD1; HepG2, 3 µM): 78%; target mRNA inhibition (SOD1; HepG2, 4 µM): 76%; target mRNA inhibition (SOD1; HepG2, 12 µM): 87% |
| TTTCTACAGCTAGCAGG (sugars e3 k2 d7 k2 e3, PS) | – | target mRNA inhibition (SOD1; HepG2, 3 µM): 38% |
| TTTCTCACTACAGGTAC (sugars e2 k2 d8 k2 e3, PS) | – | target mRNA inhibition (SOD1; HepG2, 5 µM): 35% |
| TTTCTGGATAGAGGATTAAA (sugars e5 d10 e5, PS) | – | target mRNA inhibition (SOD1; HepG2, 5 µM): 6% and 14% |
| TTTGGATTCTTTTAATAGCC (sugars e5 d10 e5, PS) | – | target mRNA inhibition (SOD1; HepG2, 5 µM): 14% |
| TTTGTCAGCAGTCACATTGC (sugars e5 d10 e5, PS) | – | target mRNA inhibition (SOD1; HepG2, 5 µM): 26% and 16% |
| TTTTAGTTTGAATTTGG (sugars e3 k2 d7 k2 e3, PS) | – | target mRNA inhibition (SOD1; HepG2, 3 µM): 12% |
| TTTTATTCACAGGCTTG (sugars e3 k2 d7 k2 e3, PS) | – | target mRNA inhibition (SOD1; HepG2, 3 µM): 28% |
| TTTTTCATGGACCACCA (sugars e3 k2 d7 k2 e3, PS) | – | target mRNA inhibition (SOD1; HepG2, 3 µM): 76% |
